# Experiments:
# Plasmodium falciparum [1] = test: microbe, parasite or virus in culture; conditions: Dd2, 72 h
# in vitro = conditions: human
# Description: Selectivity index, ratio of IC50 for cytotoxicity against human HepG2 cells assessed as cell viability to IC50 for antiplasmodial activity against asexual erythrocytic stage of Plasmodium falciparum D6 assessed as inhibition of parasitic growth incubated
# Plasmodium yoelii = test: Antiplasmodial activity against asexual erythrocytic stage of Plasmodium yoelii infected in female CFI mouse model assessed as reduction in parasitemia at 25 mg/kg, po administered once daily for 4 days and measured on day 5 by Giemsa staining based microscopic analysis relative to control; type: functional; parameters: scale not given: the % may be the effect or the level left; conditions: time 5 day
# Plasmodium falciparum [2] = test: microbe, parasite or virus in culture; conditions: Tm90-C2B, 72 h
# Plasmodium falciparum [3] = test: microbe, parasite or virus in culture; conditions: D6, 72 h
# HepG2 = test: Cytotoxicity against human HepG2 cells assessed as cell viability incubated for 72 hrs by MTT assay; type: toxicity, cell-based; conditions: hepg2
# [4] = Metabolic stability in human liver microsomes assessed as intrinsic clearance measured upto 60 mins LC-MS analysis
# [5] = Metabolic stability in mouse liver microsomes assessed as intrinsic clearance measured upto 60 mins LC-MS analysis
# [6] = Metabolic stability in human liver microsomes assessed as half life measured upto 60 mins LC-MS analysis
# [7] = Metabolic stability in mouse liver microsomes assessed as half life measured upto 60 mins LC-MS analysis
# [8] = Aqueous solubility of compound in PBS buffer at pH 7.4 incubated for 90 mins by UV-vis spectroscopic analysis; conditions: pH 7.4, 1.5 h
Structure (SMILES),IC50 (Plasmodium falciparum [1]),selectivity ratio (in vitro),Activity (Plasmodium yoelii),IC50 (Plasmodium falciparum [2]),IC50 (Plasmodium falciparum [3]),IC50 (HepG2),microsomal CLint at 1 h [4],microsomal CLint at 1 h [5],half-life at 1 h [6],half-life at 1 h [7],solubility [8]
CCCCCCCCCCCCN/C=C1\N=C(c2ccc[nH]2)C=C1OC(C)C.Cl,0.0375 µM,103,0%,0.0372 µM,0.0297 µM,3.07 µM,,,,,
CCCCCCCCCCCc1ccc(/C=C2\N=C(c3ccc[nH]3)C=C2Oc2ccc(OC(F)(F)F)cc2)[nH]1,> 2.5 µM,,,> 2.5 µM,> 2.5 µM,,,,,,
Cl.FC(F)(F)Oc1ccc(COC2=CC(c3ccc[nH]3)=N/C2=C\NC2CCCCCC2)cc1,0.0387 µM,116,72.3%,0.0263 µM,0.0495 µM,5.72 µM,,,,,
CCCOC1=CC(c2ccc[nH]2)=N/C1=C\NC12CC3CC(CC(C3)C1)C2.Cl,0.00145 µM,2140,81.8%,0.00161 µM,0.00117 µM,2.51 µM,42.8 µL/min/mg,31.8 µL/min/mg,32 min,43.5 min,52.2 µM
CCCCCCCCCCCCN/C=C1\N=C(c2ccc[nH]2)C=C1Oc1ccc(Cl)cc1,> 2.5 µM,,,> 2.5 µM,> 2.5 µM,,,,,,
CCCCCCCCCCCc1ccc(/C=C2\N=C(c3ccc[nH]3)C=C2OCc2ccc(Cl)cc2)[nH]1,0.939 µM,,,1.85 µM,,,,,,,
CCOC1=CC(c2ccc[nH]2)=N/C1=C\NCC(C)C.Cl,0.0467 µM,154,0%,0.0416 µM,0.03 µM,4.62 µM,,,,,
CCCCCCCCCCCCN/C=C1\N=C(c2ccc[nH]2)C=C1OCc1ccccc1.Cl,0.0602 µM,144,0%,0.0546 µM,,7.74 µM,,,,,
CCOC1=CC(c2ccc[nH]2)=N/C1=C\NC1CCCCCC1.Cl,0.00527 µM,,8.5%,0.00493 µM,0.00733 µM,2.26 µM,38.8 µL/min/mg,14.4 µL/min/mg,35.7 min,> 60 min,178 µM
CCCCCCCCCCCc1ccc(/C=C2\N=C(c3ccc[nH]3)C=C2OCc2ccc(OC(F)(F)F)cc2)[nH]1,> 2.5 µM,,,> 2.5 µM,> 2.5 µM,,,,,,
COC1=CC(c2ccc[nH]2)=N/C1=C\NCC(C)C,0.0928 µM,170,18.2%,0.103 µM,0.112 µM,19.1 µM,,,,,
Clc1ccc(COC2=CC(c3ccc[nH]3)=N/C2=C\NC2CCCCCC2)cc1,0.0799 µM,70,,0.0978 µM,0.121 µM,8.48 µM,,,,,
CCCOC1=CC(c2ccc[nH]2)=N/C1=C\NCC(C)C.Cl,0.0155 µM,365,75.4%,0.0231 µM,0.0209 µM,7.63 µM,,,,,
CC(C)CN/C=C1\N=C(c2ccc[nH]2)C=C1Oc1ccc(Cl)cc1,> 2.5 µM,,,> 2.5 µM,> 2.5 µM,,,,,,
CC(C)CN/C=C1\N=C(c2ccc[nH]2)C=C1OCc1ccccc1.Cl,0.058 µM,182,0%,0.0521 µM,0.0487 µM,8.86 µM,,,,,
Cl.Clc1ccc(OC2=CC(c3ccc[nH]3)=N/C2=C\NC23CC4CC(CC(C4)C2)C3)cc1,0.022 µM,275,58%,0.0283 µM,0.0528 µM,,6.72 µL/min/mg,2.1 µL/min/mg,> 60 min,> 60 min,
CC(C)CN/C=C1\N=C(c2ccc[nH]2)C=C1OCc1ccc(OC(F)(F)F)cc1,0.205 µM,,,0.335 µM,,,,,,,
CC(C)CN/C=C1\N=C(c2ccc[nH]2)C=C1Oc1ccccc1,1.69 µM,,,0.884 µM,,,,,,,
CCCCCCCCCCCCN/C=C1\N=C(c2ccc[nH]2)C=C1Oc1ccc(OC(F)(F)F)cc1,> 2.5 µM,,,> 2.5 µM,> 2.5 µM,,,,,,
C1=C(Oc2ccccc2)/C(=C/NC2CCCCCC2)N=C1c1ccc[nH]1,0.317 µM,,,0.276 µM,0.354 µM,,,,,,
CCCCCCCCCCCCN/C=C1\N=C(c2ccc[nH]2)C=C1OC,0.0699 µM,93,,0.0969 µM,0.0659 µM,6.1 µM,,,,,

Structure (SMILES),IC50 (Plasmodium falciparum [1]),selectivity ratio (in vitro),Activity (Plasmodium yoelii),IC50 (Plasmodium falciparum [2]),IC50 (Plasmodium falciparum [3]),IC50 (HepG2),microsomal CLint at 1 h [4],microsomal CLint at 1 h [5],half-life at 1 h [6],half-life at 1 h [7],solubility [8]
Cl.FC(F)(F)Oc1ccc(OC2=CC(c3ccc[nH]3)=N/C2=C\NC23CC4CC(CC(C4)C2)C3)cc1,0.242 µM,146,83%,0.204 µM,0.193 µM,28.2 µM,,,,,
CC(C)OC1=CC(c2ccc[nH]2)=N/C1=C\NC12CC3CC(CC(C3)C1)C2.Cl,0.002 µM,715,74.1%,0.00205 µM,0.00178 µM,1.27 µM,97.6 µL/min/mg,44.8 µL/min/mg,14.2 min,30.9 min,78 µM
C1=C(Oc2ccccc2)/C(=C/NC23CC4CC(CC(C4)C2)C3)N=C1c1ccc[nH]1.Cl,0.022 µM,331,>99%,0.0177 µM,0.0259 µM,8.57 µM,40 µL/min/mg,18.9 µL/min/mg,34.7 min,> 60 min,7.88 µM
CCCCCCCCCCCCN/C=C1\N=C(c2ccc[nH]2)C=C1Oc1ccccc1,> 2.5 µM,,,> 2.5 µM,> 2.5 µM,,,,,,
Cl.FC(F)(F)Oc1ccc(COC2=CC(c3ccc[nH]3)=N/C2=C\NC23CC4CC(CC(C4)C2)C3)cc1,0.00182 µM,1860,81.8%,0.00243 µM,0.00201 µM,3.74 µM,30.6 µL/min/mg,24.6 µL/min/mg,45.4 min,56.4 min,< 3.125 µM
Clc1ccc(OC2=CC(c3ccc[nH]3)=N/C2=C\NC2CCCCCC2)cc1,0.681 µM,,,0.561 µM,0.517 µM,,,,,,
CC(C)CN/C=C1\N=C(c2ccc[nH]2)C=C1OCc1ccc(Cl)cc1,0.0623 µM,78,,0.0688 µM,0.0897 µM,6.96 µM,,,,,
CCCOC1=CC(c2ccc[nH]2)=N/C1=C\NC1CCCCCC1.Cl,0.000632 µM,7960,75.5%,0.000348 µM,,2.89 µM,39.4 µL/min/mg,26 µL/min/mg,35.2 min,53.2 min,77.7 µM
OC(c1cc(C(F)(F)F)nc2c(C(F)(F)F)cccc12)C1CCCCN1 (stereo unspecified) [MEFLOQUINE],,,,,,13.7 µM,,,,,
C1=C(OCc2ccccc2)/C(=C/NC2CCCCCC2)N=C1c1ccc[nH]1.Cl,0.0173 µM,194,59.5%,0.0213 µM,0.019 µM,3.68 µM,85.1 µL/min/mg,16 µL/min/mg,16.3 min,> 60 min,15.8 µM
C1=C(OCc2ccccc2)/C(=C/NC23CC4CC(CC(C4)C2)C3)N=C1c1ccc[nH]1.Cl,0.00749 µM,171,63%,0.00525 µM,0.00645 µM,1.1 µM,71.7 µL/min/mg,17.8 µL/min/mg,19.3 min,> 60 min,5.91 µM
FC(F)(F)Oc1ccc(OC2=CC(c3ccc[nH]3)=N/C2=C\NC2CCCCCC2)cc1,> 2.5 µM,,,1.69 µM,1.19 µM,,,,,,
CCCCCCCCCCCc1ccc(/C=C2\N=C(c3ccc[nH]3)C=C2Oc2ccc(Cl)cc2)[nH]1,1.4 µM,,,2.3 µM,1.32 µM,,,,,,
CCCCCCCCCCCCN/C=C1\N=C(c2ccc[nH]2)C=C1OCc1ccc(Cl)cc1,0.34 µM,,,0.305 µM,0.41 µM,,,,,,
CCCCCCCCCCCCN/C=C1\N=C(c2ccc[nH]2)C=C1OCC.Cl,0.00968 µM,391,0%,0.0127 µM,0.0111 µM,4.35 µM,,,,,
CC(C)CN/C=C1\N=C(c2ccc[nH]2)C=C1Oc1ccc(OC(F)(F)F)cc1,> 2.5 µM,,,> 2.5 µM,> 2.5 µM,,,,,,
CC(C)CN/C=C1\N=C(c2ccc[nH]2)C=C1OC(C)C.Cl,0.0377 µM,201,0%,0.0342 µM,,7.42 µM,,,,,
CCCCCCCCCCCCN/C=C1\N=C(c2ccc[nH]2)C=C1OCCC.Cl,0.0442 µM,135,16.4%,0.039 µM,0.0328 µM,4.44 µM,,,,,
Cl.Clc1ccc(COC2=CC(c3ccc[nH]3)=N/C2=C\NC23CC4CC(CC(C4)C2)C3)cc1,0.00856 µM,160,40%,0.0114 µM,0.0141 µM,2.25 µM,,,,,
CCCCCCCCCCCCN/C=C1\N=C(c2ccc[nH]2)C=C1OCc1ccc(OC(F)(F)F)cc1,0.35 µM,,,0.32 µM,0.413 µM,,,,,,

# Reference: ChEMBL document CHEMBL6083254, “Optimization of B-Ring-Functionalized Antimalarial Tambjamines and Prodiginines” (J Med Chem, 2024)
